Where two headings read alike, the source gives them in different places.
What was measured:
[1] = molecular target: T1, recombinant human cathepsin L (hCatL) (Homo sapiens, UniProt P07711); assay: hCatL screening, cleavage of Z-FR-AMC; format: biochemical; conditions: for inhibition at 100 µM: read-out: % hCatL inhib.
T1 construct: purchased Sigma-Aldrich
Experimental: The recombinant human cathepsin L (hCatL) (Sigma-Aldrich) was activated prior to the assays. First, 10 ng/ μ L of the enzyme was incubated in the activation buffer (50 mM MES, pH 6, 1 mM EDTA, 5mM DTT) for 30 min at 37 °C. hCatL activity was measured based on the cleavage of the fluorescent substrate Z-FR-AMC in a Biotec 87 Synergy 2 fluorimeter at the Multiuser Laboratory of the Biochemistry and Immunology Department (UFMG, Brazil). The assays were executed in 96-well round bottom black plates in 50 mM MES buffer, pH 6, containing 1 mM EDTA, 5 mM DTT, 0.001% Triton-X100, 5 pg/ μ L enzyme and 25 μ M Z-FR-AMC at 37 °C. The triazole-based derivatives were tested against hCatL, at 100 μ M, with a 10 min pre-incubation with the enzyme. The initial velocities of the DMSO control were compared to those in the presence of the compounds. Assays were executed in triplicate in two independent experiments, and enzyme activity was measured for 20 min.

[2] = molecular target: T2, recombinant CZP (cruzain) (Trypanosoma cruzi, UniProt P25779); assay: CZP inhibition, cleavage of fluorogenic substrate Z-FR-AMC (initial screening and IC50); format: biochemical, T. cruzi; conditions: for times lower potency than the most active analogues (Ald-6 and Ald-10): CZP IC50 ratio
T2 construct: gift of Allison Doak and Prof; Brian Shoichet (University of California San Francisco)
T2 sequence (P25779 123-337): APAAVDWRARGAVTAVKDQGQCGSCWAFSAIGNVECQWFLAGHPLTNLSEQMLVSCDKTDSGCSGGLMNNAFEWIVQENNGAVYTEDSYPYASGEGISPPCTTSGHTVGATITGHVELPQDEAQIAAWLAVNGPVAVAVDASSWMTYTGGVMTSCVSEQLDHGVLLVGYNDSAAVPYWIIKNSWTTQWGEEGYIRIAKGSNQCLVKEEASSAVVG
Experimental: The previously reported methods were followed to evaluate the in vitro activity against CZP [91, 92, 93, 94]. Allison Doak and Prof. Brian Shoichet (University of California San Francisco, San Francisco, CA, USA) generously provided recombinant CZP (cruzain). The enzyme activity was measured by monitoring the cleavage of the fluorogenic substrate Z-FR-AMC at 25 °C. Unless stated otherwise, assays were performed using 2.5 μ M of substrate ( KM = 0.5 ± 0.1 μ M) and 0.5 nM CZP in a 0.1 M sodium acetate buffer, pH 5.5, 0.01% Triton X-100 and 2 mM β -mercaptoethanol. DMSO and 1 μ M E-64 were employed as negative and positive controls, respectively, in all assays. Fluorescence was monitored at 340/440 nm (excitation/emission) over time in a Biotec 87 Synergy 2 fluorimeter at the Multiuser Laboratory of the Biochemistry and Immunology Department (UFMG, Belo Horizonte, Brazil). All assays were performed in triplicate in two independent experiments.
Initial screening. For the initial screening against CZP, compounds at 100 μ M were tested against CZP with and without a 10min pre-incubation with the enzyme. The fluorescence was monitored for 10 min at 5 s intervals. DMSO and E-64 were employed in all assays as negative and positive controls, respectively. Initial velocities of the negative control (DMSO) were compared to those in the presence of compounds to calculate the percentage of inhibition. The reported values correspond to the mean and standard error of the mean (SEM) of experiments performed in triplicate in two independent experiments.
IC50 determination. Compounds in at least eight distinct compound concentrations (400 μ M, 100 μ M, 25 μ M, 6.25 μ M, 1.5 μ M, 0.4 μ M, 0.1 μ M and 0.025 μ M) were incubated with CZP for 10 min, and once the substrate was added, the fluorescence was monitored for 10 min at 5 s intervals. IC50 curves were obtained from a non-linear fit of the inhibition values versus the logarithmic concentration of the compounds. The reported IC50 values are the mean and SEM of two independent measurements performed in triplicate.

[3] = system: T. cruzi (Tulahuen trypomastigotes overexpressing β-galactosidase) in Vero cells; assay: T. cruzi inhibition assay, infection model in Vero cells, β-galactosidase activity; format: cell-based, Trypanosoma cruzi; conditions: 50 μM (Ald-4 20 μM)
Experimental: To perform the assay, the drug screening method reported by Buckner et al. was adapted. Vero cells were seeded at 1 × 10^4 per well on 96-well culture plates in 100 μ L MEM-5% FBS. Tulahuen trypomastigotes overexpressing the E. coli β -galactosidase protein were distributed in triplicates on the plate. After a 2 h incubation at 37 °C, the culture media were extracted and replaced with fresh MEM-5% FBS with 1 μ M, 10 μ M or 50 μ M solutions of the triazole-based inhibitors, and the plate was incubated another 72 h at 37 °C. Ninety-six hours post infection, the cell culture media were removed and cells and intracellular amastigotes were lysed in 100 μ L lysis buffer (25 mM Tris pH 8, 2 mM EDTA, 2 mM DTT, 1% Triton X-100, 10% glycerol in ultrapure MQ water) for 10 min at 37 °C. Then, 100 μ L 2× reaction buffer (200 mM sodium phosphate pH 8, 2 mM MgCl2, 100 mM 2-mercaptoethanol and 1.33 mg.mL^−1 o-nitrophenyl- β -galactoside (ONPG)) was added and the reaction was allowed to proceed until a yellow color developed (1–2 h at 37 °C). The absorbance at 420 nm was measured in a Synergy HTX multi-mode microplate reader (Biotek Instruments, Winooski, VT, USA) and normalized to the value obtained for the infection in the absence of inhibitors. To determine its IC50, Ald-6 was evaluated at nine different concentrations (0.098, 0.195, 0.39, 0.78, 1.56 3.13 6.25, 12.5 and 50.0 μ M), following the same protocol. Each infection condition and inhibitor were tested in triplicates in four independent experiments.

[4] = 100 μM, 10 min pre-incubation of the enzyme with compound, read-out: % CZP inh.
[5] = 10 min incubation with CZP, mean ± SEM of two independent experiments, read-out: IC50 (μM) against CZP

T1 sequence (P07711 114-333): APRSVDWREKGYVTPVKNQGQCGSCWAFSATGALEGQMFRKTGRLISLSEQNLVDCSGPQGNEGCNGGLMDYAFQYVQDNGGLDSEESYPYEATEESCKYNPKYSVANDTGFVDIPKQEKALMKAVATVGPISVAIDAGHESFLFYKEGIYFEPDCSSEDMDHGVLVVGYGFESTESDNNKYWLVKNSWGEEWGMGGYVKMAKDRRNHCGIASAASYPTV

| Compound | inhibition at 100 µM [2, 4] | other results |
| --- | --- | --- |
| O=CC(Cc1ccccc1)n1cc(C(NCc2ccc3c(c2)OCO3)C2CCCCC2)nn1 (stereo not shown) [Ald-1] | 64 ± 5% | selectivity for CZP over hCatL in words ([1]; 100 μM): selective CZP inhibitors; inhibition at 100 µM ([1]; 10 min incubation): 0%; IC50 [2]: 41 ± 4 µM; times lower potency than the most active analogues (Ald-6 and Ald-10) [2]: 12.4 |
| O=CC(CCC(=O)O)n1cc(C(NCc2ccc3c(c2)OCO3)C2CCCCC2)nn1 (stereo not shown) [Ald-3] | 8 ± 2% | CZP inhibitory activity in words [2]: not active at all |
| O=CC(Cc1c[nH]cn1)n1cc(C(NCc2ccc3c(c2)OCO3)C2CCCCC2)nn1 (stereo not shown) [Ald-4] | 83 ± 2% | anti-T. cruzi/cytotoxicity balance in words [3]: acceptable anti-T. cruzi/cytotoxicity balance; selectivity for CZP over hCatL in words ([1]; 100 μM): selective CZP inhibitors; inhibition at 100 µM ([1]; 10 min incubation): 10 ± 3%; IC50 [2, 5]: 5 ± 2 µM |
| CC(C)CC(C=O)n1cc(C(NCc2ccc3c(c2)OCO3)C2CCCCC2)nn1 (stereo not shown) [Ald-5] | 64 ± 2% | selectivity for CZP over hCatL in words ([1]; 100 μM): selective CZP inhibitors; inhibition at 100 µM ([1]; 10 min incubation): 24 ± 9%; IC50 [2]: 7 ± 2 µM |
| CSCCC(C=O)n1cc(C(NCc2ccc3c(c2)OCO3)C2CCCCC2)nn1 (stereo not shown) [Ald-7] | 42 ± 7% | – |
| O=CC(c1ccccc1)n1cc(C(NCc2ccc3c(c2)OCO3)C2CCCCC2)nn1 (stereo not shown) [Ald-9] | 11 ± 3% | – |
| CC(O)C(C=O)n1cc(C(NCc2ccc3c(c2)OCO3)C2CCCCC2)nn1 (stereo not shown) [Ald-11] | 58 ± 4% | – |
| O=CC(Cc1c[nH]c2ccccc12)n1cc(C(NCc2ccc3c(c2)OCO3)C2CCCCC2)nn1 (stereo not shown) [Ald-12] | 56 ± 7% | selectivity for CZP over hCatL in words ([1]; 100 μM): selective CZP inhibitors; inhibition at 100 µM ([1]; 10 min incubation): 0%; IC50 [2, 5]: 45.4 ± 0.3 µM; times lower potency than the most active analogues (Ald-6 and Ald-10) [2]: 13.8 |
| O=CC(Cc1ccc(O)cc1)n1cc(C(NCc2ccc3c(c2)OCO3)C2CCCCC2)nn1 (stereo not shown) [Ald-13] | 83 ± 2% | selectivity for CZP over hCatL in words ([1]; 100 μM): selective CZP inhibitors; inhibition at 100 µM ([1]; 10 min incubation): 0%; IC50 [2, 5]: 13 ± 5 µM; times lower potency than the most active analogues (Ald-6 and Ald-10) [2]: 3.9 |
| O=CC(Cc1ccccc1)n1cc(C(C2CCCCC2)N2CCc3ccccc3C2)nn1 (stereo not shown) [Ald-16] | 34 ± 5% | – |
| O=CC(Cc1c[nH]cn1)n1cc(C(C2CCCCC2)N2CCc3ccccc3C2)nn1 (stereo not shown) [Ald-17] | 38 ± 6% | – |
| CSCCC(C=O)n1cc(C(C2CCCCC2)N2CCc3ccccc3C2)nn1 (stereo not shown) [Ald-18] | 16 ± 4% | – |
| O=CC(c1ccccc1)n1cc(C(C2CCCCC2)N2CCc3ccccc3C2)nn1 (stereo not shown) [Ald-19] | 3 ± 10% | – |
| CC(O)C(C=O)n1cc(C(C2CCCCC2)N2CCc3ccccc3C2)nn1 (stereo not shown) [Ald-21] | 8 ± 7% | – |
| O=CC(Cc1c[nH]c2ccccc12)n1cc(C(C2CCCCC2)N2CCc3ccccc3C2)nn1 (stereo not shown) [Ald-22] | 55 ± 9% | – |
| CC(C)C[C@H](NC(=O)[C@H]1O[C@@H]1C(=O)O)C(=O)NCCCCN=C(N)N [E-64, reference compound] | – | % hCatL inhib. ([1]; 100 μM, 10 min incubation): 97 ± 3%; CZP inhibition by positive control ([2]; 1 μM, 10 min preincubation): 98%; % CZP inh. ([2]; 100 μM, 10 min pre-incubation of the enzyme with compound): 98 ± 2%; % CZP inhib. wo/inc. ([2]; 100 μM, without prior incubation): 12± 8% |
| COC(=O)[C@H](Cc1ccccc1)n1cc(C(NCc2ccc3c(c2)OCO3)C2CCCCC2)nn1 (stereo partly shown) [Es-1] | 15 ± 2% | – |
| COC(=O)C(C(C)C)n1cc(C(NCc2ccc3c(c2)OCO3)C2CCCCC2)nn1 (stereo not shown) [Es-2] | 9 ± 7% | – |
| COC(=O)C(CCC(=O)O)n1cc(C(NCc2ccc3c(c2)OCO3)C2CCCCC2)nn1 (stereo not shown) [Es-3] | 8 ± 7% | – |

| Compound | inhibition at 100 µM [2, 4] | other results |
| --- | --- | --- |
| COC(=O)C(Cc1c[nH]cn1)n1cc(C(NCc2ccc3c(c2)OCO3)C2CCCCC2)nn1 (stereo not shown) [Es-4] | 5 ± 4% | – |
| COC(=O)C(CC(C)C)n1cc(C(NCc2ccc3c(c2)OCO3)C2CCCCC2)nn1 (stereo not shown) [Es-5] | 5 ± 2% | – |
| COC(=O)[C@H](CCCCN)n1cc(C(NCc2ccc3c(c2)OCO3)C2CCCCC2)nn1 (stereo partly shown) [Es-6] | 9 ± 2% | – |
| COC(=O)C(C)n1cc(C(NCc2ccc3c(c2)OCO3)C2CCCCC2)nn1 (stereo not shown) [Es-8] | 8 ± 7% | – |
| COC(=O)C(c1ccccc1)n1cc(C(NCc2ccc3c(c2)OCO3)C2CCCCC2)nn1 (stereo not shown) [Es-9] | 6 ± 5% | – |
| COC(=O)C(CO)n1cc(C(NCc2ccc3c(c2)OCO3)C2CCCCC2)nn1 (stereo not shown) [Es-10] | ≥ 47% | inhibition at 100 µM ([2]; read-out: % CZP inhib. wo/inc., 100 μM, without prior incubation): 43 ± 4% |
| COC(=O)C(C(C)O)n1cc(C(NCc2ccc3c(c2)OCO3)C2CCCCC2)nn1 (stereo not shown) [Es-11] | 0% | – |
| COC(=O)C(Cc1c[nH]c2ccccc12)n1cc(C(NCc2ccc3c(c2)OCO3)C2CCCCC2)nn1 (stereo not shown) [Es-12] | 15 ± 2% | – |
| COC(=O)C(Cc1ccc(O)cc1)n1cc(C(NCc2ccc3c(c2)OCO3)C2CCCCC2)nn1 (stereo not shown) [Es-13] | 8 ± 1% | – |
| CCOC(=O)C(Cc1ccccc1)n1cc(C(C2CCCCC2)N2CCc3ccccc3C2)nn1 (stereo not shown) [Es-16] | 13 ± 6% | – |
| COC(=O)C(Cc1c[nH]cn1)n1cc(C(C2CCCCC2)N2CCc3ccccc3C2)nn1 (stereo not shown) [Es-17] | 6 ± 3% | – |
| CCOC(=O)C(CCSC)n1cc(C(C2CCCCC2)N2CCc3ccccc3C2)nn1 (stereo not shown) [Es-18] | 0% | – |
| COC(=O)C(c1ccccc1)n1cc(C(C2CCCCC2)N2CCc3ccccc3C2)nn1 (stereo not shown) [Es-19] | 0% | – |
| COC(=O)C(CO)n1cc(C(C2CCCCC2)N2CCc3ccccc3C2)nn1 (stereo not shown) [Es-20] | 5 ± 4% | – |
| COC(=O)C(C(C)O)n1cc(C(C2CCCCC2)N2CCc3ccccc3C2)nn1 (stereo not shown) [Es-21] | 0% | – |
| COC(=O)C(Cc1c[nH]c2ccccc12)n1cc(C(C2CCCCC2)N2CCc3ccccc3C2)nn1 (stereo not shown) [Es-22] | 1 ± 6% | – |
| COC(=O)C(Cc1ccc(O)cc1)n1cc(C(C2CCCCC2)N2CCc3ccccc3C2)nn1 (stereo not shown) [Es-23] | 1 ± 14% | – |
| COC(=O)C(CCCNC(=N)N)n1cc(C(C2CCCCC2)N2CCc3ccccc3C2)nn1 (stereo not shown) [Es-24] | 6 ± 1% | – |
